The record followed here is patent EP0049049A1, “5-Amino-tetrazole derivatives, processes for their preparation and pharmaceutical compositions containing them” (GLAXO GROUP LIMITED, priority 1980, dated 1982).

Structures are written as SMILES.

The test system of one test is perfused rat stomach. As to the kind of experiment: perfused rat stomach test (inhibition of gastric acid secretion stimulated via histamine receptors). The test is classed as in vivo.
Details: not given
From the text: Certain novel heterocyclic derivatives have now been found which have potent activity as H2-antagonists. […] Certain compounds according to the invention have the advantage of an extended duration of action .
By ED50 is commonly meant the dose at which the effect has come halfway, by size or by number of responders. For `CN(C)Cc1cc(CSCCNc2nnnn2C)cs1` [5(b), N-[2-[[5-(dimethylamino)methyl-3-thienylmethyl]thio]ethyl]-1-methyl-lH-tetrazol-5-amine], the ED50 entry is given as “less than 0.22 mg/kg”.

Staying with this test, now noted: read-out: ED50.
On to `CC(C)n1nnnc1NCCCCOc1cccc(CN2CCCCC2)c1` [1(c), l-(l-methylethyl)-N-[4-[3-(1-piperidinylmethyl)phenoxy]butyl]-1H-tetrazol-5-amine], for which the ED50 is < 0.22 mg/kg. Same read-out and setting: then `CCCCCCNCc1cccc(OCCCNc2nnnn2C)c1` [7(b), N-[3-[3-[(hexylamino)methyl]phenoxy]propyl]-1-methyl-1H-tetrazol-5-amine hydrate (4:1)], with < 0.22 mg/kg; and `OCCn1nnnc1NCCCOc1cccc(CN2CCCCC2)c1` [Example 4, 5-[[3-[3-(1-piperidinylmethyl)phenoxy]propyl]amino]-1H-tetrazol-1-(2-ethanol) hydrate (4 : 1)], with < 0.22 mg/kg. On the same count and under the same terms, the result for `Cn1nnnc1NCCCOc1cccc(CN2CCCCC2)c1` [l(a), 1-Methyl-N-[3-[3-(1-piperidinylmethyl)phenoxy]propyl]-1H-tetrazol-5-amine] reads < 0.22 mg/kg; that for `CN(C)Cc1cccc(OCCCNc2nnnn2C)c1` [l(d), l-methyl-N-[[3-[3-(dimethylamino)methyl]phenoxy]propyl]-lH-tetrazol-5-amine], < 0.22 mg/kg.
